Experimental data published in BigSolDB 2.1.

CC(C)=CCOc1c2ccoc2cc2oc(=O)ccc12
solubility (mole fraction) (in ethanol, 288.2 K): 0.00263 | solubility (mole fraction) (in ethanol, 293.2 K): 0.00377 | solubility (mole fraction) (in ethanol, 298.2 K): 0.00531 | solubility (mole fraction) (in ethanol, 303.2 K): 0.00733 | solubility (mole fraction) (in ethanol, 308.2 K): 0.00999 | solubility (mole fraction) (in ethanol, 313.2 K): 0.0134 | solubility (mole fraction) (in ethanol, 318.2 K): 0.0178 | solubility (mole fraction) (in ethanol, 323.2 K): 0.023 | solubility (mole fraction) (in ethanol, 328.2 K): 0.03 | solubility (mole fraction) (in water, 288.2 K): 6.03e-07 | solubility (mole fraction) (in water, 293.2 K): 7.42e-07 | solubility (mole fraction) (in water, 298.2 K): 9.34e-07 | solubility (mole fraction) (in water, 303.2 K): 1.02e-06 | solubility (mole fraction) (in water, 308.2 K): 1.16e-06 | solubility (mole fraction) (in water, 313.2 K): 1.29e-06 | solubility (mole fraction) (in water, 318.2 K): 1.68e-06 | solubility (mole fraction) (in water, 323.2 K): 2.17e-06 | solubility (mole fraction) (in water, 328.2 K): 2.79e-06
